In ChEMBL document CHEMBL1201862, “PubChem BioAssay data set” (2004):
Active and inactive are the calls of the source.

How the values were obtained:
[1] = molecular target: T1, Long-chain-fatty-acid--AMP ligase FadD28 (Mycobacterium tuberculosis, UniProt P9WQ59); test: Fluorescence polarization aasay to screen for inhibitors that compete for the binding of FadD28 to a bisubstrate Measured in Biochemical System Using Plate Reader - 2147-01_Inhibitor_Dose_CherryPick_Activity.; format: functional, Mycobacterium tuberculosis H37Rv
T1 sequence (P9WQ59 whole entry): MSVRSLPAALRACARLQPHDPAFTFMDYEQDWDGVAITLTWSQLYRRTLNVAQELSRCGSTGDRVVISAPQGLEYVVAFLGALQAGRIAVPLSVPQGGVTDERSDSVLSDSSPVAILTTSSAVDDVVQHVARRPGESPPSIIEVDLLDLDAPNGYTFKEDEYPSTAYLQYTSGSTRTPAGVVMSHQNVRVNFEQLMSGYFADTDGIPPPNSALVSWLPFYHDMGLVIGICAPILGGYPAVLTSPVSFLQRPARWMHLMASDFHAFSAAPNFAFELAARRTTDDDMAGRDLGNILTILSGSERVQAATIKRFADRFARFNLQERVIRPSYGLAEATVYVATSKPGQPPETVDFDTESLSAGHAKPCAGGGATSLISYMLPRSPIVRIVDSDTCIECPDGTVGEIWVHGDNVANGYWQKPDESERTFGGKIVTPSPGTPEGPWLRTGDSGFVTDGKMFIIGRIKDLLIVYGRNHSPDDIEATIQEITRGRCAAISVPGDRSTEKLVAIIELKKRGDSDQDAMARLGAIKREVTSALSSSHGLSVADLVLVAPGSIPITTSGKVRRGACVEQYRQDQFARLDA

[2] = Trypanosoma cruzi growth suppression in host cells – NIH3T3 host cells, beta-gal luminescence, confirmation (AID 2044); format: functional, cell-based;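 further: intracellular parasites grown in NIH/3T3 mouse fibroblasts as host cells; luminescent beta-galactosidase reporter signal from transgenic T. cruzi replicating inside host cells; inhibitors lower the luminescence signal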
[3] = NIH3T3 cell viability loss – ATP luminescence, mouse fibroblasts, counter-screen, dose response (AID 2010); format: functional, cell-based;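 further: cells exposed to compound for about 90 hours before reading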
[4] = molecular target: Botulinum neurotoxin type F (Clostridium botulinum, UniProt P30996); test: High-throughput multiplex microsphere dose response for inhibitors of toxin protease, specifically Botulinum neurotoxin light chain F protease, compounds from Cherry Pick 02.; format: functional; details: read-out: EC50_MICROM
Botulinum neurotoxin type F, sequence (P30996 1-436 limits assumed): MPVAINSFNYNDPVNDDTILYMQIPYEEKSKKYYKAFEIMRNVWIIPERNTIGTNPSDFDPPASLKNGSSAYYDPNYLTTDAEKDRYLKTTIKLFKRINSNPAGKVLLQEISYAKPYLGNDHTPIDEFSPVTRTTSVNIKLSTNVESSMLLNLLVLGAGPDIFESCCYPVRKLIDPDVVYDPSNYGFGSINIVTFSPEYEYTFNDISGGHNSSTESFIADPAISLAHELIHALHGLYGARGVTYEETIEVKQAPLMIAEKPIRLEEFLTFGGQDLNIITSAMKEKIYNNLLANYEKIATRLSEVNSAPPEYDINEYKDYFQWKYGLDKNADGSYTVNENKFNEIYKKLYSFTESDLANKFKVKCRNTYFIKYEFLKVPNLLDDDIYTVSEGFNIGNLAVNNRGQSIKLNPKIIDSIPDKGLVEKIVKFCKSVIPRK

[5] = molecular target: T2, Sentrin-specific protease 1 (Homo sapiens, UniProt Q9P0U3); test: SENP1 catalytic domain blockers, concentration series – biochemical, kinetic FRET, dose response (AID 651697); format: functional; details: read-out: IC50_Mean
T2 sequence (Q9P0U3 whole entry, the tested form may be a part): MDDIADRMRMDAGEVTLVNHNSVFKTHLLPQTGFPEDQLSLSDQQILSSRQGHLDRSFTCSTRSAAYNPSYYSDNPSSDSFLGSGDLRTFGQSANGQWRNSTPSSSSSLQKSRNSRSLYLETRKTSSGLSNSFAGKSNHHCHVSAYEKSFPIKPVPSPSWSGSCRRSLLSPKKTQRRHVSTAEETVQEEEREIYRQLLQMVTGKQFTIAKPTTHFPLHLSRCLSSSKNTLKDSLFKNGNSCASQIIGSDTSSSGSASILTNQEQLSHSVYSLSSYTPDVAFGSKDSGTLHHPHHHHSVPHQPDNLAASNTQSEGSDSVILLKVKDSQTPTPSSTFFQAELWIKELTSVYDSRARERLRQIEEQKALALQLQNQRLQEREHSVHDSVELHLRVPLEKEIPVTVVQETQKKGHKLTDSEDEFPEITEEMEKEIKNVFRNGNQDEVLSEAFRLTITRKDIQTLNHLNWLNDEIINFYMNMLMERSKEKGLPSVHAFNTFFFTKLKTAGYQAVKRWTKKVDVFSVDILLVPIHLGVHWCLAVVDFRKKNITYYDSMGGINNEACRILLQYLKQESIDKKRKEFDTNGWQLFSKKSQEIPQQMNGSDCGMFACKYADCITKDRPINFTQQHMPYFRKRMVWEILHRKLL

[6] = molecular target: T3, Zinc finger protein mex-5 (Caenorhabditis elegans, UniProt Q9XUB2); test: potency of MEX-5 RNA-binding blockers – biochemical, C. elegans, fluorescence polarization, dose response (AID 1960)
T3 sequence (Q9XUB2 whole entry): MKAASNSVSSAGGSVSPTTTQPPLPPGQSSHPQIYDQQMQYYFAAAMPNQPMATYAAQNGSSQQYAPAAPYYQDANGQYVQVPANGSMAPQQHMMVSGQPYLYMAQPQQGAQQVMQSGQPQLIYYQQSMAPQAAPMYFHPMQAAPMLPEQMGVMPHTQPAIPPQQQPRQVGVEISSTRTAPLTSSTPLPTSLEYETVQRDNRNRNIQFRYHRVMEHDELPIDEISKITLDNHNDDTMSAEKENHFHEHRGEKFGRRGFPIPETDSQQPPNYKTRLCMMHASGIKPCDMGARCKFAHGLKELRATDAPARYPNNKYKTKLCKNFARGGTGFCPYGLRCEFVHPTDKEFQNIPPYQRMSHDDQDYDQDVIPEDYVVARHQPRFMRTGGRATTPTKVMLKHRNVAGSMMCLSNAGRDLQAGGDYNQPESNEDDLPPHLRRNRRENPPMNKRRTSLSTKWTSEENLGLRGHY

[7] = molecular target: T4, RNA-binding protein pos-1 (Caenorhabditis elegans, UniProt G5EF15); test: disruptors of C. elegans POS-1 RNA interaction – biochemical, fluorescence polarization, dose response (AID 1964);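 further: purified POS-1 fused to maltose binding protein made in E. coli; potency of compounds blocking POS-1 binding to fluorescent RNA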
T4 sequence (G5EF15 whole entry): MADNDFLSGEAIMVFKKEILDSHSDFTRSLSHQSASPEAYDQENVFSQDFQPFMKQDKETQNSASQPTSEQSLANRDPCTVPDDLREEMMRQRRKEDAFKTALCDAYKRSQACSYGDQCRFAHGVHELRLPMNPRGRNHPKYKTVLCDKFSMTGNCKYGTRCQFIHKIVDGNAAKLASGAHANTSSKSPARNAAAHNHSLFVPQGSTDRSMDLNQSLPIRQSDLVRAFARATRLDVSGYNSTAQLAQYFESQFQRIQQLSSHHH

[8] = molecular target: T2, Sentrin-specific protease 1; test: Dose response confirmation of small molecule inhibitors of the catalytic domain of the SUMO protease, SENP1 in a FRET assay.; format: functional; details: read-out: IC50_Mean
Cryptococcus neoformans = test: PubChem AID 686997; format: functional, organism-based
[9] = Luminescence Cell-Based Dose Retest to Confirm Inhibitors of Cancer Stem Cells. [Related pubchem assays (depositor defined):AID2717, AID2721]; format: functional; details: Homo sapiens
[10] = general mammalian cell viability loss – inhibitor set, cherry-pick, set 2, cytotoxicity control for miR-122 modulator project, dose response (AID 720697); format: functional, cell-based
[11] = activation of miR-122 Renilla sensor silencing – cell-based, Huh7 psiCHECK-miR122, Renilla luciferase, cherry-picked, dose response (AID 651956); format: functional;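 further: huh7 hepatoma cells stably carrying a psiCHECK-2 miR-122 sensor plasmid; renilla luciferase signal reporting endogenous miR-122 activity after 48 h compound exposure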
[12] = general mammalian cell viability loss – activator set, cherry-pick, cytotoxicity control for miR-122 modulator project, dose response (AID 720690); format: functional, cell-based;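 further: HEK293T human cells scored for general mammalian cytotoxicity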
[13] = molecular target: T5, Replicative DNA helicase DnaB (Mycobacterium tuberculosis, UniProt P9WMR3); test: DnaB intein splicing inhibitors, dose response, biochemical, cell-free fluorescence (AID 449749); format: functional
T5 sequence (P9WMR3 whole entry): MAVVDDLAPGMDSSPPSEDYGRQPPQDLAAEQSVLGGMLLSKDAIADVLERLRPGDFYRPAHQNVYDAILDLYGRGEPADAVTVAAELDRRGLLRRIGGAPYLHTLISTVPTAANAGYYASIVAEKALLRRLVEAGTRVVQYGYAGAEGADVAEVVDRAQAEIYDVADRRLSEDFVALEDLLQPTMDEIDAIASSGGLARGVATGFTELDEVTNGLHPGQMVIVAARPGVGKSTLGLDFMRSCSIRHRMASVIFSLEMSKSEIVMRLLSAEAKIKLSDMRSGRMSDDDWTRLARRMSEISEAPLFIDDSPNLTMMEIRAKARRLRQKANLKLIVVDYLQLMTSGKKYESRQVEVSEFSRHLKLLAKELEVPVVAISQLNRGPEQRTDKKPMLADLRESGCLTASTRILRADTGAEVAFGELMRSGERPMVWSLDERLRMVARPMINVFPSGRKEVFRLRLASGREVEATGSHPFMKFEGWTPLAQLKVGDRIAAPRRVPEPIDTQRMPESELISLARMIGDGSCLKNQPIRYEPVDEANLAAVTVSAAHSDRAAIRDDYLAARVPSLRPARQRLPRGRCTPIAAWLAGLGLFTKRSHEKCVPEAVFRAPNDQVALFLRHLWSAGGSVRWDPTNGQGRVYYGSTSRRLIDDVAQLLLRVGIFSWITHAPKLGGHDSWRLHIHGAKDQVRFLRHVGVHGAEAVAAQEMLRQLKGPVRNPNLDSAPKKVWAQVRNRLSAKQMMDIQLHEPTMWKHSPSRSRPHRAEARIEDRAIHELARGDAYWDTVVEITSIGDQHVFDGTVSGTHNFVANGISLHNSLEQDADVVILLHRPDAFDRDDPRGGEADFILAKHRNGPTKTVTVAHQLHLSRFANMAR

[14] = molecular target: T6, Sentrin-specific protease 8 (Homo sapiens, UniProt Q96LD8); format: functional
T6 sequence (Q96LD8 whole entry): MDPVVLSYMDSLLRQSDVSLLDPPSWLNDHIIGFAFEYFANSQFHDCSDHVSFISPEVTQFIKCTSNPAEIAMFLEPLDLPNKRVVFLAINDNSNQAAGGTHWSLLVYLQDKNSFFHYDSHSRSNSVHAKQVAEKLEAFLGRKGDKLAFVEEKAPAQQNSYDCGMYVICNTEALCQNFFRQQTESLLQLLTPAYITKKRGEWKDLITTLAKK

Protein RecA = molecular target: T7, Protein RecA (Mycobacterium tuberculosis, UniProt P9WHJ3); test: Fluorescence Cell-Free Homogeneous Dose Retest to Identify Inhibitors of RecA-Intein Splicing Activity. [Related pubchem assays (depositor defined):AID2097, AID2223, AID489010, AID492950]; format: functional
T7 sequence (P9WHJ3 whole entry): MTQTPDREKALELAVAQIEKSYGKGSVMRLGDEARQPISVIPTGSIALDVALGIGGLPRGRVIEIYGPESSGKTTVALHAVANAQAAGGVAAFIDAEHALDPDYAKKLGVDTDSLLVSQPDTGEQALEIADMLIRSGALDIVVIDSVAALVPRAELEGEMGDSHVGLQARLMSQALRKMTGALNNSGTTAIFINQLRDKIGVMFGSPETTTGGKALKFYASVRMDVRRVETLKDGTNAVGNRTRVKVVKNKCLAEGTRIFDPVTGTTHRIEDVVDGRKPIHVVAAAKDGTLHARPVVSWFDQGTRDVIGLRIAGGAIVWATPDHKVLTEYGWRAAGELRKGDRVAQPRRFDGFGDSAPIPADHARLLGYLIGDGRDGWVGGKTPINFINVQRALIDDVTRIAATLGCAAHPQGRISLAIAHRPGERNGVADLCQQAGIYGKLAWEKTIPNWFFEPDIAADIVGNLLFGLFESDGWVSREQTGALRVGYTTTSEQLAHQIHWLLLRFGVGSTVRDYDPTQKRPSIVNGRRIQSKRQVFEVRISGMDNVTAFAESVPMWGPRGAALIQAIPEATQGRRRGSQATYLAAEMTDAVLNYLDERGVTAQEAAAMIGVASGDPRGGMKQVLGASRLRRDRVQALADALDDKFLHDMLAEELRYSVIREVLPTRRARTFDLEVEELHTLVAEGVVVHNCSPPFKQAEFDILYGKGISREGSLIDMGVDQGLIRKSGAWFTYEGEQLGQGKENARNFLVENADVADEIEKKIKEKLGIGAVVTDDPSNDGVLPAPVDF

[15] = molecular target: T6, Sentrin-specific protease 8; format: functional; remark: listed apart in the source
Vero = test: viability loss in Vero cells – cell-based, plate reader, cherry-pick samples, cytotoxicity control, dose response (AID 687020); format: functional; details: Chlorocebus sabaeus
Protein S100-A4 = Protein S100-A4 (Homo sapiens, UniProt P26447); test: human S100A4 peptide interaction inhibition curves – biochemical, fluorescence polarization, cherry-picked hits, dose response (AID 687001); format: functional
Protein S100-A4, sequence (P26447 whole entry): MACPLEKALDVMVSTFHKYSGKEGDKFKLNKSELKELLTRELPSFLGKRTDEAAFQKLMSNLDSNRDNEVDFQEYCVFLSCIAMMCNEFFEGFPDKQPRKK

Beta-lactamase [16] = molecular target: T8, Beta-lactamase (Salmonella choleraesuis (strain SC-B67), UniProt Q5J463); test: Epi-absorbance-based counterscreen for selective VIM-2 inhibitors: dose response biochemical high throughput screening assay to identify inhibitors of TEM-1 serine-beta-lactamase.
T8 sequence (Q5J463 whole entry): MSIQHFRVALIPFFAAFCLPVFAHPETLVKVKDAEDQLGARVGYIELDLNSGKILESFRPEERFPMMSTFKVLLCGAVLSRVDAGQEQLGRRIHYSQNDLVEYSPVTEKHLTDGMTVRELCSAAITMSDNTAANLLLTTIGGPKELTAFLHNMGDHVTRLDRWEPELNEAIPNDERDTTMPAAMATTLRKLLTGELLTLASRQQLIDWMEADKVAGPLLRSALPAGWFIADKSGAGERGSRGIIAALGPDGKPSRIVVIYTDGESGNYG

Beta-lactamase [17] = molecular target: T9, Beta-lactamase (Pseudomonas aeruginosa, UniProt Q79MP6); test: […] counterscreen for selective VIM-2 inhibitors: dose response biochemical high throughput screening assay to identify inhibitors of IMP-1 metallo-beta-lactamase.
T9 sequence (Q79MP6 whole entry): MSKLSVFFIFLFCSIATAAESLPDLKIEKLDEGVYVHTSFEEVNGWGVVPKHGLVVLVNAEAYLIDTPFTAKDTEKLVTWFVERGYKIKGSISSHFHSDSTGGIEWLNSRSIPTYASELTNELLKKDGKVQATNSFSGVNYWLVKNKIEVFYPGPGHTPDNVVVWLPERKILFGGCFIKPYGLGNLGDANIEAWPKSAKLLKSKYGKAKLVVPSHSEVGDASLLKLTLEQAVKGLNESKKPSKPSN

Beta-lactamase [18] = molecular target: T9, Beta-lactamase; test: inhibition of IMP-1 beta-lactamase activity – biochemical, epi-absorbance, selectivity assay for VIM-2 inhibitor project, dose response (AID 1920)
[19] = molecular target: FAD-linked sulfhydryl oxidase ALR (Homo sapiens, UniProt P55789); test: ALR-catalysed DTT oxidation blockers – biochemical, H2O2 detection, luminescence, cherry-pick, dose response (AID 493248)
FAD-linked sulfhydryl oxidase ALR, sequence (P55789 whole entry): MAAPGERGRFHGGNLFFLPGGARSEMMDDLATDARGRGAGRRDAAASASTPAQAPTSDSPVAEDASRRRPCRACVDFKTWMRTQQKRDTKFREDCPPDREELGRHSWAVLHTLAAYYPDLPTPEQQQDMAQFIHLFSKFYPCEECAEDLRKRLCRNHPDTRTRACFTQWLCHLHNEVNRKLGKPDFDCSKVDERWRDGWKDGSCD

Beta-lactamase [20] = molecular target: T9, Beta-lactamase
Beta-lactamase [21] = molecular target: T8, Beta-lactamase
[22] = molecular target: Fructose-bisphosphate aldolase (Mycobacterium tuberculosis, UniProt P9WQA3); test: Fluorescence-based biochemical high throughput dose response assay for inhibitors of the fructose-bisphosphate aldolase (FBA) of M. tuberculosis.; format: functional
Fructose-bisphosphate aldolase, sequence (P9WQA3 whole entry): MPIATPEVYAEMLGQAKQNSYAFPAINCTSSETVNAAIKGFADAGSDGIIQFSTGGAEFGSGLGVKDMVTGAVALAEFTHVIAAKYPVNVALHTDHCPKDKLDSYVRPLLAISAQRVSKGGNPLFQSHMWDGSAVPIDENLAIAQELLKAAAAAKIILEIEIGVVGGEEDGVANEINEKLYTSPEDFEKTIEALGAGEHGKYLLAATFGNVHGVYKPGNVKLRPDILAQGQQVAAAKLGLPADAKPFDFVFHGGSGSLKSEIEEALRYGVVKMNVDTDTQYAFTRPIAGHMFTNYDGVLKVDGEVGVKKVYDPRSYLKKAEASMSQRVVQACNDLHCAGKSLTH

CCc1cccc2c(C(=O)COC(=O)c3ccc(O)cc3)c[nH]c12
AC50 [1]: 26.2 µM (active)
EC50 [2]: 2.89 µM (active)
EC50 [3]: 9.37 µM (active)
EC50 [4]: > 20 µM (inactive)

COc1ccc2c(c1)c1nc3ccccc3nc1n2CCn1c(=O)oc2ccccc21
IC50 [5]: 38.6 µM (inactive)
EC50 [6]: > 300 µM (inconclusive)
EC50 [7]: > 300 µM (inconclusive)
IC50 [8]: 20.9 µM (inactive)

COc1ccc(C(=O)NC(=S)Nc2ccccc2N2CCCCC2)cc1[N+](=O)[O-]
AC50 (Cryptococcus neoformans): > 70 µM (inactive)
AC50 [9]: 0.549 µM (active)

C[C@@H]1CN([C@H](C)CO)C(=O)c2cc(NC(=O)Nc3cccc4ccccc34)ccc2O[C@@H](C)CCCCO[C@@H]1CN(C)Cc1ccc2c(c1)OCO2
AC50 [10]: < 0.195 µM (active)
AC50 [11]: 9.62 µM (active)
AC50 [12]: 22 µM (active)

COc1cc(C(c2c(C)n[nH]c2O)c2c(C)n[nH]c2O)ccc1OS(=O)(=O)c1ccccc1
AC50 [13]: 0.402 µM (active)
IC50 [14]: 72.9 µM (inactive)
EC50 (Protein RecA): 0.217 µM (active)
IC50 [15]: 45.2 µM (active)

CCCCNC(=O)O[C@H]1C[C@@H]2CCN3C(=O)CCC[C@H]([C@H]1Cc1ccccc1)[C@H]23
AC50 (Vero): 38.6 µM (active)

COc1cccc2c1C(=O)c1c(O)c3c(c(O)c1C2=O)CC(O)(C(C)=O)CC3OC1CC(O)C(O)C(C)O1 (stereo unspecified)
AC50 (Protein S100-A4): 0.395 µM (active)

COc1cccc(-n2c(S)nnc2CNC(=O)OC(C)(C)C)c1
IC50 (Beta-lactamase [16]): > 59.6 µM (inactive)
IC50 (Beta-lactamase [17]): > 59.6 µM (inactive)
IC50 (Beta-lactamase [18]): > 59.6 µM (inactive)
AC50 [19]: 12.1 µM (active)

CCc1cc(=O)oc2cc(C)c(CN3CCCC3)c(O)c12
IC50 (Beta-lactamase [20]): > 59.6 µM (inactive)
IC50 (Beta-lactamase [21]): > 59.6 µM (inactive)

Cc1ccc2c(C)cc[n+](CCCS(=O)(=O)[O-])c2c1
IC50 [22]: 5.92 µM (active)
